Reference: ChEMBL document CHEMBL1137470, “Pyrrolidinones as potent functional antagonists of the human melanocortin-4 receptor” (Bioorg Med Chem Lett, 2007)

Columns and labels:
[1] = Ratio of drug level in brain to plasma in mouse at 5 mg/kg, iv after 4 hrs; assay type: ADME, organism-based; design: dose 5 mg/kg, route intravenous; details: read-out: BPR
[2] = Half life in mouse at 5 mg/kg, iv; assay type: ADME, organism-based; design: dose 5 mg/kg, route intravenous; details: in vivo
[3] = Ratio of drug level in brain to plasma in rat at 5 mg/kg, iv after 1 hr; assay type: ADME, organism-based; design: dose 5 mg/kg, route intravenous; details: read-out: BPR
[4] = Plasma clearance in mouse at 5 mg/kg, iv; assay type: ADME, organism-based; design: dose 5 mg/kg, route intravenous
[5] = AUC in mouse at 5 mg/kg, iv; assay type: ADME, organism-based; design: dose 5 mg/kg, route intravenous; details: plasma
[6] = Lipophilicity, log D by shake-flask method; assay type: physicochemical; details: octanol/water
[7] = Drug level in mouse brain at 5 mg/kg, iv after 4 hrs; assay type: ADME, organism-based; design: dose 5 mg/kg, route intravenous; details: read-out: Drug uptake
[8] = Oral bioavailability in mouse at 10 mg/kg, po; assay type: ADME, organism-based; details: in vivo
[9] = Apparent permeability across Caco-2 cells; assay type: ADME, cell-based; details: human
[10] = Tmax in mouse at 10 mg/kg, po; assay type: ADME, organism-based; design: dose 10 mg/kg, route oral; details: in vivo
[11] = Volume of distribution in mouse at 5 mg/kg, iv; assay type: ADME, organism-based; design: dose 5 mg/kg, route intravenous; details: in vivo
[12] = Drug level in mouse brain at 5 mg/kg, iv after 1 hr; assay type: ADME, organism-based; design: dose 5 mg/kg, route intravenous; details: read-out: Drug uptake
[13] = Ratio of drug level in brain to plasma in mouse at 5 mg/kg, iv after 1 hr; assay type: ADME, organism-based; design: dose 5 mg/kg, route intravenous; details: read-out: BPR
[14] = AUC in mouse at 10 mg/kg, po; assay type: ADME, organism-based; design: dose 10 mg/kg, route oral; details: plasma
[15] = Permeability from basolateral to apical side of the Caco-2 cell membrane; assay type: ADME, cell-based; details: human, read-out: permeability
[16] = Drug level in rat brain at 5 mg/kg, iv after 1 hr; assay type: ADME, organism-based; design: dose 5 mg/kg, route intravenous; details: read-out: Drug uptake
[17] = Cmax in mouse at 10 mg/kg, po after 2 hrs; assay type: ADME, organism-based; design: dose 10 mg/kg, route oral; details: in vivo

Kp at 4 h [1] | half-life [2] [min] | Kp at 1 h [3] | clearance [4] [mL/min/kg] | AUC [5] [ng·h/mL] | logD [6] | concentration at 4 h [7] [ng/g] | bioavailability [8] [%] | Papp [9] [×10⁻⁶ cm/s] | Tmax [10] [h] | Vd [11] [L/kg] | concentration at 1 h [12] [ng/g] | Kp at 1 h [13] | AUC [14] [ng·h/mL] | Papp B→A [15] [×10⁻⁶ cm/s] | concentration at 1 h [16] [ng/g] | Cmax [17] [ng/mL] | SMILES
0.23 |  |  |  |  |  |  |  |  |  |  |  |  |  |  |  |  | CC(C)C[C@H](NCCN)c1cc(F)ccc1N1CCN(C(=O)[C@@H](Cc2ccc(Cl)cc2Cl)N2CCCC2=O)CC1
 | 600 | 0.47 | 15 | 9980 | 1.8 | 53 | 19.5 | 2 | 2 | 13 | 63 | 0.14 | 1950 | 6.7 | 81 | 552 | CC(C)C[C@H](NCCN)c1cccc(F)c1N1CCN(C(=O)[C@@H](Cc2ccc(Cl)cc2Cl)N2CCCC2=O)CC1
